In US12281149B2, “Modulators of G-protein coupled receptors” (priority 2021, dated 2025):
pEC50: −log10 of the molar value. *1 amine or outer side, *2 acyl side, *3 side chain or, on linkers, in order; H or OH if unused. Where a SMILES comes first, the peptide text is derived from it. Side-chain parts run from the residue outwards. [ ]: non-standard residue; d: D form. The star is where a group is joined. Isobutyryl(2-(3-CN-5-F-Ph)) = CC(C)(C(=O)*)c1cc(F)cc(C#N)c1; C20 diacid = O=C(O)CCCCCCCCCCCCCCCCCCC(=O)*; αMePhe(2-F) = C[C@](N)(Cc1ccccc1F)C(=O)O; γGlu = O=C(O)[C@H](CCC(=O)[*:2])N[*:1]; X20 = O=C(C1(c2ccc(Cl)cc2)CCOCC1)*; X70 = CC[C@H](CN[*:1])C(=O)[*:2]; X60 = O=C(C1(c2cccnc2)CCCC1)*; AEEA = NCCOCCOCC(=O)O; Aib = CC(C)(N)C(=O)O; βAla = NCCC(=O)O

Key:
Format in all cases: cell-based
GLP-1 receptor [1] = molecular target: T1, GLP-1 receptor (Homo sapiens, UniProt P43220); test: HitHunter cAMP assay, GLP-1 receptor; details: for pEC50: CHO cells stably expressing human GLP-1 receptor, cAMP accumulation, 30 min, read-out: EC50 GLP-1R; for Emax: CHO cells, cAMP, normalized to maximum signal from GLP-1 (high) and DMSO (low), read-out: Emax GLP-1R
GIP receptor [2] = molecular target: T2, GIP receptor (Homo sapiens, UniProt P48546); test: HitHunter cAMP assay, GIP receptor; details: for pEC50: CHO cells stably expressing GIP receptor, cAMP accumulation, 30 min, read-out: EC50 GIP-1R; for Emax: CHO cells, cAMP, normalized to maximum signal from GIP (high) and DMSO (low), read-out: Emax GIP-1R
T2 sequence (P48546 22-466): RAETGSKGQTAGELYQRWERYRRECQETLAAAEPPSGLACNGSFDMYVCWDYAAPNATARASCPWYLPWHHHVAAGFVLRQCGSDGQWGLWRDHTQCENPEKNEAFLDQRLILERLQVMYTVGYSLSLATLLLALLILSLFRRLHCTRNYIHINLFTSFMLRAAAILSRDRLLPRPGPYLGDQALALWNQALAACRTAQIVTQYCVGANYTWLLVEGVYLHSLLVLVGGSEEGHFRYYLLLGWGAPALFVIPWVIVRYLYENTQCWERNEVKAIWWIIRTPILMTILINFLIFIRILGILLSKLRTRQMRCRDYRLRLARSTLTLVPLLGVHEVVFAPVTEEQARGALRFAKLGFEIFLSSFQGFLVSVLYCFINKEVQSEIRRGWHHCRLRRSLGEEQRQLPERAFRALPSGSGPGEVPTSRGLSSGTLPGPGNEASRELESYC

GIP receptor [3] = molecular target: T2, GIP receptor; test: PathHunter β-arrestin assay, GIP receptor; set-up: host or cells: PathHunter CHO-K1 GIPR β-Arrestin Cell Line; details: β-arrestin-2 recruitment, PathHunter CHO-K1 GIPR β-Arrestin Cell Line, 90 min at 37° C.; normalized to GIP; read-out: GIPR β Arrestin EC50
GLP-1 receptor [4] = molecular target: T1, GLP-1 receptor; test: PathHunter β-arrestin assay, GLP-1 receptor; set-up: host or cells: PathHunter CHO-K1 GLP1R β-Arrestin Cell Line; details: β-arrestin-2 recruitment, PathHunter CHO-K1 GLP1R β-Arrestin Cell Line, 90 min at 37° C.; normalized to GLP-1; read-out: GLP-1R β Arrestin EC50

T1 sequence (P43220 24-463): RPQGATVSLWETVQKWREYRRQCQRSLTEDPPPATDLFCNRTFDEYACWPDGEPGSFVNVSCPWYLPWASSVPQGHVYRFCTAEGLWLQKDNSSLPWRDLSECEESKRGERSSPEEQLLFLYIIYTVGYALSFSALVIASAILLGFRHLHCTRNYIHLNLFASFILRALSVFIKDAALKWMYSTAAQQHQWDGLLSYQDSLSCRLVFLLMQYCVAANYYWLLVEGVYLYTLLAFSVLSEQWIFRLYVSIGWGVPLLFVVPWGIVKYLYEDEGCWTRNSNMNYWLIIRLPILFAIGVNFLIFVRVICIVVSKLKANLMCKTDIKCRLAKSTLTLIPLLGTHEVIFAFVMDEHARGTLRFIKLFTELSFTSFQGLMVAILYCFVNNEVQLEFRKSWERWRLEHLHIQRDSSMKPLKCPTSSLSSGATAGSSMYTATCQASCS

Row | Structure (SMILES) | pEC50 (GLP-1 receptor [1]) | Emax (GLP-1 receptor [1]) | pEC50 (GIP receptor [2]) | Emax (GIP receptor [2]) | pEC50 (GIP receptor [3]) | pEC50 (GLP-1 receptor [4])
1 | CC[C@H](CNC(=O)C(C)(C)c1cc(F)cc(C#N)c1)C(=O)N[C@@H](CCC(=O)O)C(=O)NCC(=O)N[C@H](C(=O)N[C@@H](Cc1ccccc1)C(=O)N[C@H](C(=O)N[C@@H](CO)C(=O)N[C@@H](CC(=O)O)C(=O)N[C@@H](Cc1ccc(O)cc1)C(=O)N[C@@H](CO)C(=O)N[C@H](C(=O)NC(C)(C)C(=O)N[C@@H](CC(C)C)C(=O)N[C@@H](CC(=O)O)C(=O)N[C@@H](CCCCN)C(=O)N[C@H](C(=O)N[C@@H](C)C(=O)N[C@@H](CCC(N)=O)C(=O)N[C@@H](CCCCNC(=O)COCCOCCNC(=O)COCCOCCNC(=O)CC[C@H](NC(=O)CCCCCCCCCCCCCCCCCCC(=O)O)C(=O)O)C(=O)N[C@@H](C)C(=O)N[C@@H](Cc1ccccc1)C(=O)N[C@H](C(=O)N[C@@H](CCC(N)=O)C(=O)N[C@@H](Cc1c[nH]c2ccccc12)C(=O)N[C@@H](CC(C)C)C(=O)N[C@H](C(=O)N[C@@H](C)C(=O)NCC(=O)NCC(=O)N1CCC[C@H]1C(=O)N[C@@H](CO)C(=O)N[C@@H](CO)C(=O)NCC(=O)N[C@@H](C)C(=O)N1CCC[C@H]1C(=O)N1CCC[C@H]1C(=O)N1CCC[C@H]1C(=O)N[C@@H](CO)C(N)=O)[C@@H](C)CC)C(C)C)[C@@H](C)CC)[C@@H](C)CC)[C@@H](C)O)[C@@H](C)O [Compound 148] ({Isobutyryl(2-(3-CN-5-F-Ph))}-[X70]EGTFTSDYSI[Aib]LDKIAQK([AEEA-AEEA-γGlu-C20 diacid])AFVQWLIAGGPSSGAPPPS-NH2) | 8.00 to 9.00 | 99% | 7.00 to 8.00 | 101% | < 6.00 | < 6.00
2 | CC[C@H](C)[C@H](NC(=O)[C@H](CC(C)C)NC(=O)[C@H](Cc1c[nH]c2ccccc12)NC(=O)[C@H](CCC(N)=O)NC(=O)[C@@H](NC(=O)[C@H](Cc1ccccc1)NC(=O)[C@H](C)NC(=O)[C@H](CCCCNC(=O)COCCOCCNC(=O)COCCOCCNC(=O)CC[C@H](NC(=O)CCCCCCCCCCCCCCCCCCC(=O)O)C(=O)O)NC(=O)[C@H](CCC(N)=O)NC(=O)[C@H](C)NC(=O)[C@@H](NC(=O)[C@H](CCCCN)NC(=O)[C@H](CC(=O)O)NC(=O)[C@H](CC(C)C)NC(=O)C(C)(C)NC(=O)[C@@H](NC(=O)[C@H](CO)NC(=O)[C@H](Cc1ccc(O)cc1)NC(=O)[C@H](CC(=O)O)NC(=O)[C@H](CO)NC(=O)[C@@H](NC(=O)[C@](C)(Cc1ccccc1F)NC(=O)[C@@H](NC(=O)CNC(=O)[C@H](CCC(=O)O)NC(=O)CCNC(=O)C1(c2cccnc2)CCCC1)[C@@H](C)O)[C@@H](C)O)[C@@H](C)CC)[C@@H](C)CC)C(C)C)C(=O)N[C@@H](C)C(=O)NCC(=O)NCC(=O)N1CCC[C@H]1C(=O)N[C@@H](CO)C(=O)N[C@@H](CO)C(=O)NCC(=O)N[C@@H](C)C(=O)N1CCC[C@H]1C(=O)N1CCC[C@H]1C(=O)N1CCC[C@H]1C(=O)N[C@@H](CO)C(N)=O [Compound 246] ({X60-βAla}-EGT[αMePhe(2-F)]TSDYSI[Aib]LDKIAQK([AEEA-AEEA-γGlu-C20 diacid])AFVQWLIAGGPSSGAPPPS-NH2) | 9.00 to 10.00 | 130% | 9.00 to 10.00 | 100% | > 6.00 | > 6.00
3 | CC[C@H](C)[C@H](NC(=O)[C@H](CC(C)C)NC(=O)[C@H](Cc1c[nH]c2ccccc12)NC(=O)[C@H](CCC(N)=O)NC(=O)[C@@H](NC(=O)[C@H](Cc1ccccc1)NC(=O)[C@H](C)NC(=O)[C@H](CCCCNC(=O)COCCOCCNC(=O)COCCOCCNC(=O)CC[C@H](NC(=O)CCCCCCCCCCCCCCCCCCC(=O)O)C(=O)O)NC(=O)[C@H](CCC(N)=O)NC(=O)[C@H](C)NC(=O)[C@@H](NC(=O)[C@H](CCCCN)NC(=O)[C@H](CC(=O)O)NC(=O)[C@H](CC(C)C)NC(=O)C(C)(C)NC(=O)[C@@H](NC(=O)[C@H](CO)NC(=O)[C@H](Cc1ccc(O)cc1)NC(=O)[C@H](CC(=O)O)NC(=O)[C@H](CO)NC(=O)[C@@H](NC(=O)[C@H](Cc1ccccc1)NC(=O)[C@@H](NC(=O)CNC(=O)[C@H](CCC(=O)O)NC(=O)CCNC(=O)C1(c2ccc(Cl)cc2)CCOCC1)[C@@H](C)O)[C@@H](C)O)[C@@H](C)CC)[C@@H](C)CC)C(C)C)C(=O)N[C@@H](C)C(=O)NCC(=O)NCC(=O)N1CCC[C@H]1C(=O)N[C@@H](CO)C(=O)N[C@@H](CO)C(=O)NCC(=O)N[C@@H](C)C(=O)N1CCC[C@H]1C(=O)N1CCC[C@H]1C(=O)N1CCC[C@H]1C(=O)N[C@@H](CO)C(N)=O [Compound 172] ({X20-βAla}-EGTFTSDYSI[Aib]LDKIAQK([AEEA-AEEA-γGlu-C20 diacid])AFVQWLIAGGPSSGAPPPS-NH2) | 8.00 to 9.00 | 89% | 8.00 to 9.00 | 109% | < 6.00 | < 6.00
4 | CC[C@H](C)[C@H](NC(=O)[C@H](CC(C)C)NC(=O)[C@H](Cc1c[nH]c2ccccc12)NC(=O)[C@H](CCC(N)=O)NC(=O)[C@@H](NC(=O)[C@H](Cc1ccccc1)NC(=O)[C@H](C)NC(=O)[C@H](CCCCNC(=O)COCCOCCNC(=O)COCCOCCNC(=O)CC[C@H](NC(=O)CCCCCCCCCCCCCCCCCCC(=O)O)C(=O)O)NC(=O)[C@H](CCC(N)=O)NC(=O)[C@H](C)NC(=O)[C@@H](NC(=O)[C@H](CCCCN)NC(=O)[C@H](CC(=O)O)NC(=O)[C@H](CC(C)C)NC(=O)C(C)(C)NC(=O)[C@@H](NC(=O)[C@H](CO)NC(=O)[C@H](Cc1ccc(O)cc1)NC(=O)[C@H](CC(=O)O)NC(=O)[C@H](CO)NC(=O)[C@H](C)NC(=O)[C@H](Cc1ccccc1)NC(=O)[C@@H](NC(=O)CNC(=O)[C@H](CCC(=O)O)NC(=O)CCNC(=O)C(C)(C)c1cc(F)cc(C#N)c1)[C@@H](C)O)[C@@H](C)CC)[C@@H](C)CC)C(C)C)C(=O)N[C@@H](C)C(=O)NCC(=O)NCC(=O)N1CCC[C@H]1C(=O)N[C@@H](CO)C(=O)N[C@@H](CO)C(=O)NCC(=O)N[C@@H](C)C(=O)N1CCC[C@H]1C(=O)N1CCC[C@H]1C(=O)N1CCC[C@H]1C(=O)N[C@@H](CO)C(N)=O [Compound 168] ({Isobutyryl(2-(3-CN-5-F-Ph))-βAla}-EGTFASDYSI[Aib]LDKIAQK([AEEA-AEEA-γGlu-C20 diacid])AFVQWLIAGGPSSGAPPPS-NH2) | 7.00 to 8.00 | 87% | 8.00 to 9.00 | 112% | > 6.00 | < 6.00
5 | CC[C@H](C)[C@H](NC(=O)[C@H](CO)NC(=O)[C@H](Cc1ccc(O)cc1)NC(=O)[C@H](CC(=O)O)NC(=O)[C@H](CO)NC(=O)[C@@H](NC(=O)[C@H](Cc1ccccc1)NC(=O)[C@@H](NC(=O)CNC(=O)[C@H](CCC(=O)O)NC(=O)CCNC(=O)[C@@]1(c2ccccc2)CNC(=O)C1)[C@@H](C)O)[C@@H](C)O)C(=O)N[C@@H](Cc1ccc(O)cc1)C(=O)N[C@@H](CC(C)C)C(=O)N[C@@H](CC(=O)O)C(=O)N[C@@H](CCCCN)C(=O)N[C@@H](CCC(N)=O)C(=O)N[C@@H](C)C(=O)N[C@@H](C)C(=O)N[C@@H](CCCCNC(=O)COCCOCCNC(=O)COCCOCCNC(=O)CC[C@H](NC(=O)CCCCCCCCCCCCCCCCCCC(=O)O)C(=O)O)C(=O)N[C@@H](CCC(=O)O)C(=O)N[C@@H](Cc1ccccc1)C(=O)N[C@H](C(=O)N[C@@H](CC(N)=O)C(=O)N[C@@H](Cc1c[nH]c2ccccc12)C(=O)N[C@@H](CC(C)C)C(=O)N[C@@H](CC(C)C)C(=O)N[C@@H](C)C(=O)NCC(=O)NCC(=O)N1CCC[C@H]1C(=O)N[C@@H](CO)C(=O)N[C@@H](CO)C(=O)NCC(=O)N[C@@H](C)C(=O)N1CCC[C@H]1C(=O)N1CCC[C@H]1C(=O)N1CCC[C@H]1C(=O)N[C@@H](CO)C(N)=O)C(C)C (single isomer, unassigned) [Compound 124] | 7.00 to 8.00 | 97% | 7.00 to 8.00 | 102% | < 6.00 | < 6.00
